System: M. tuberculosis-209
Type: cell-based, Mycobacterium tuberculosis

With `O=[N+]([O-])c1ccc(/C(O)=C/C(=S)S)cc1` [Compound 11e, (Z)-3-hydroxy-3-(4-nitrophenyl)-prop-2-enedithioic acid] the “MIC100 in Mtb-209” value was “active”.

Reference: PMC8543028 (Infection and Drug Resistance, 2021)
